From ChEMBL document CHEMBL5233249, “Recent advancements in the development of heterocyclic anti-inflammatory agents” (Eur J Med Chem, 2020)
Values after ≈ are worked out from the molar mass of the structure shown.

How the values were obtained:
RAW264.7 [1] = assay: Anti-inflammatory activity in mouse RAW264.7 cells assessed as inhibition of LPS-induced NO production in macrophages; assay type: functional, cell-based
[2] = target: T1, Prostaglandin G/H synthase 2 (Homo sapiens) (UniProt P35354); assay: Inhibition of COX-2 (unknown origin) assessed as inhibition at 100 mg/kg relative to control; assay type: organism-based
T1 sequence (whole entry): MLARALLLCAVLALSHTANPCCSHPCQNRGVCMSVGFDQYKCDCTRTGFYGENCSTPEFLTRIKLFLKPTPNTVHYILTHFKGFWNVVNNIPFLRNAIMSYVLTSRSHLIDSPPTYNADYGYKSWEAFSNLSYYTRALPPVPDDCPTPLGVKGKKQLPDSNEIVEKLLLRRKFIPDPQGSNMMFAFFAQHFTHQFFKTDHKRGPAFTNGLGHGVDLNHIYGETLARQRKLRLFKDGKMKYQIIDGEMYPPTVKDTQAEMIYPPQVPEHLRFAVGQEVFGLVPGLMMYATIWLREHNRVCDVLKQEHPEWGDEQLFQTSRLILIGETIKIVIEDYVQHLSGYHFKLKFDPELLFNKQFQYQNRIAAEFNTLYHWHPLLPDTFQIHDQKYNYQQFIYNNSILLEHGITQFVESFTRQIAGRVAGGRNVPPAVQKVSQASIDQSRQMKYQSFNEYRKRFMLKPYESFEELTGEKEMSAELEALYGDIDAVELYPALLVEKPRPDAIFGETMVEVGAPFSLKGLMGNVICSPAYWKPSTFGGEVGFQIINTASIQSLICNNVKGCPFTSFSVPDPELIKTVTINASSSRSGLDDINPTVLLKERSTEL

[3] = Antioxidant activity assessed as DPPH radical scavenging activity incubated for 20 mins by spectrophotometric analysis; assay type: functional
Rattus norvegicus [4] = assay: Anti-inflammatory activity against Carrageenan-induced paw edema in PO dosed Wistar albino rat assessed as inhibition of edema measured after 1 hr relative to control; assay type: functional; set-up: scale not given: the % may be the effect or the level left
Rattus norvegicus [5] = assay: Anti-inflammatory activity against Carrageenan-induced paw edema in PO dosed Wistar albino rat assessed as inhibition of edema measured after 2 hr relative to control; assay type: functional; set-up: scale not given: the % may be the effect or the level left
Rattus norvegicus [6] = assay: Anti-inflammatory activity against Carrageenan-induced paw edema in PO dosed Wistar albino rat assessed as inhibition of edema measured after 4 hr relative to control; assay type: functional; set-up: scale not given: the % may be the effect or the level left
[7] = Selectivity index, ratio of IC50 for ovine COX1 to IC50 for recombinant human COX2
Rattus norvegicus [8] = assay: Anti-inflammatory activity in Wistar rat assessed as reduced hind paw edema at 25 mg/kg relative to control; assay type: functional; set-up: scale not given: the % may be the effect or the level left
Erythrocyte = assay: Anti-inflammatory activity in human red blood cells assessed as stabilization of cell membrane; assay type: functional, cell-based
Rattus norvegicus [9] = assay: Anti-inflammatory activity in Carageenan-induced foot paw edema in Swiss albino rat assessed as reduction in volume of paw edema measured after 1 hr relative to control; assay type: functional; set-up: scale not given: the % may be the effect or the level left
Rattus norvegicus [10] = assay: Anti-inflammatory activity in Carageenan-induced foot paw edema in Swiss albino rat assessed as reduction in volume of paw edema measured after 2 hr relative to control; assay type: functional; set-up: scale not given: the % may be the effect or the level left
Rattus norvegicus [11] = assay: Anti-inflammatory activity in Carageenan-induced foot paw edema in Swiss albino rat assessed as reduction in volume of paw edema measured after 4 hr relative to control; assay type: functional; set-up: scale not given: the % may be the effect or the level left
Rattus norvegicus [12] = assay: Anti-inflammatory activity in Carageenan-induced foot paw edema in Swiss albino rat assessed as reduction in volume of paw edema measured after 6 hr relative to control; assay type: functional; set-up: scale not given: the % may be the effect or the level left
Rattus norvegicus [13] = assay: Anti-inflammatory activity against Carrageenan-induced paw edema in PO dosed Wistar albino rat assessed as inhibition of edema measured after 3 hr relative to control; assay type: functional; set-up: scale not given: the % may be the effect or the level left
Rattus norvegicus [14] = assay: Anti-inflammatory activity against formalin-induced foot paw edema in PO dosed rat at 10 mg/kg assessed as inhibition of edema measured after 4 hr relative to control; assay type: functional
RAW264.7 [15] = assay: Anti-inflammatory activity in mouse RAW264.7 cells assessed as inhibition of LPS-induced NO production measured after 24 hrs; assay type: functional, cell-based; conditions: RAW264.7, 24 h
[16] = Anti-inflammatory activity assessed as protein denaturation using bovine serum albumin relative to control; assay type: functional
[17] = target: T2, Prostaglandin G/H synthase 1 (Ovis aries, UniProt P05979); assay: Inhibition of ovine COX-1 by EIA method
T2 sequence (P05979 whole entry): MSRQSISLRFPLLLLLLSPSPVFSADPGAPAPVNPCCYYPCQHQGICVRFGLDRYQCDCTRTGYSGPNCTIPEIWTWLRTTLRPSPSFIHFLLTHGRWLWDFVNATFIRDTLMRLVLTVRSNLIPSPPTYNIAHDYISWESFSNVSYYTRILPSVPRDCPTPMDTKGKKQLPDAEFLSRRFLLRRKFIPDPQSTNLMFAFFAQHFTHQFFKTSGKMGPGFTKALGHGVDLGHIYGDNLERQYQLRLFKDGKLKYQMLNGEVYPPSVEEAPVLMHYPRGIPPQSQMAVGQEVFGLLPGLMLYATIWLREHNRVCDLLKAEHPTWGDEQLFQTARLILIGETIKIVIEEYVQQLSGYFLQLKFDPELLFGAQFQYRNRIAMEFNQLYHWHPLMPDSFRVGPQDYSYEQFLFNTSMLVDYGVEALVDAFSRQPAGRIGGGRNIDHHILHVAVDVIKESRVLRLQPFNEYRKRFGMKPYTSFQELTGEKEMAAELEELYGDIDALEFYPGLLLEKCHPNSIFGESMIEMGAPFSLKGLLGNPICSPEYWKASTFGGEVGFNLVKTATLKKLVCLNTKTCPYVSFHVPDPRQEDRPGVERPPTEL

Mus musculus [18] = assay: Anti-inflammatory activity in Carrageenan-induced paw edema mouse model assessed as inhibition of granuloma measured after 24 hrs relative to control; assay type: functional
Rattus norvegicus [19] = assay: Anti-inflammatory activity against formalin-induced foot paw edema in Wistar rat at 5 mg/kg, po assessed as inhibition of edema measured after 4 hr relative to control; assay type: functional
[20] = target: T3, Polyunsaturated fatty acid 5-lipoxygenase (Homo sapiens, UniProt P09917); assay: Inhibition of 5-LOX (unknown origin) after 5 mins by colorimetric method
T3 sequence (P09917 whole entry): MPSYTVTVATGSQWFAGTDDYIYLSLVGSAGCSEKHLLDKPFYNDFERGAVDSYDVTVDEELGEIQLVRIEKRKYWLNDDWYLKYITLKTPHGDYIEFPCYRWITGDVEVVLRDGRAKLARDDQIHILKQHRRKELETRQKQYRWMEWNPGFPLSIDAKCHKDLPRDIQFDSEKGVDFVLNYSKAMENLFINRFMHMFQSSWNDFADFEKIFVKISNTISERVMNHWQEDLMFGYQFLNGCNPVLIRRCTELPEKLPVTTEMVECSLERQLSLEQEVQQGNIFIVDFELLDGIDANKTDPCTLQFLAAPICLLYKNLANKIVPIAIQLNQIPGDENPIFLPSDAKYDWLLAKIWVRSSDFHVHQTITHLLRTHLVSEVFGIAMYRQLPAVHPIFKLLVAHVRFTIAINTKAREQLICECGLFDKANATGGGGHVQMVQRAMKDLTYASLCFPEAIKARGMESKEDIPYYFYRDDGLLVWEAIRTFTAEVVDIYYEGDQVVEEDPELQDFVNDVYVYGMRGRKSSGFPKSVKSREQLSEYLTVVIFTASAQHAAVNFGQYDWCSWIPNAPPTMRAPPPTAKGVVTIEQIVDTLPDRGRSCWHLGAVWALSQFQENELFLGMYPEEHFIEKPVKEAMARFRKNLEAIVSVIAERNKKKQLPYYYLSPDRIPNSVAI

Mus musculus [21] = assay: Anti-inflammatory activity against Carrageenan-induced paw edema in mouse model assessed as inhibition of edema at 100 mg/kg measured after 3 hrs relative to control; assay type: functional; set-up: scale not given: the % may be the effect or the level left
Rattus norvegicus [22] = assay: Anti-ulcerative activity in aspirin induced Wistar rat ulcer model assessed as inhibition of ulcer index at 20 mg/kg,po; assay type: functional
Rattus norvegicus [23] = assay: Anti-ulcerative activity in Carrageenan-induced Sprague-Dawley rat ulcer model assessed as inhibition of ulcer index at 10 mg/kg,po; assay type: functional

Structure (SMILES): C=CC(CO)[C@@H]1C[C@H]2c3[nH]c4ccccc4c3CCN2C(=O)[C@H]1CO (some centres undefined)
- IC50 (RAW264.7 [1]): 1.18 µM

Structure (SMILES): Cc1ccc(-c2nn(-c3ccccc3)cc2C(O)C(F)(F)C(=O)NN)cc1 (centres undefined)
- inhibition [2]: 33.7%
- Activity [3]: 70.9%

Structure (SMILES): CC(C)(CO)NC(=O)CCCC(=O)/C=C/c1cn(-c2ccccc2)nc1-c1ccccc1
- Activity (Rattus norvegicus [4]): 40%
- Activity (Rattus norvegicus [5]): 25.56%
- Activity (Rattus norvegicus [6]): 30.95%

Structure (SMILES): C=CC1=CN=CC2C(=O)N3CCc4c([nH]c5ccccc45)C3=CC12 (centres undefined)
- IC50 (RAW264.7 [1]): 1.28 µM

Structure (SMILES): NS(=O)(=O)c1ccc(-n2nc(C(=O)NNC(=O)c3cccc(C(F)(F)F)c3)cc2-c2ccccc2)cc1
- Selectivity Index [7]: 10
- Activity (Rattus norvegicus [8]): 62.48%

Structure (SMILES): Oc1ccccc1-c1cc(-c2cc3cc4ccccc4nc3s2)[nH]n1
- EC50 (Erythrocyte): 11 µg/mL (≈ 32 µM)

Structure (SMILES): CCCC1Nc2cc(C(=O)N/N=C/c3ccc(Cl)c(Cl)c3O)cc(C)c2N1 (centres undefined)
- Activity (Rattus norvegicus [9]): 43.3%
- Activity (Rattus norvegicus [10]): 57.62%
- Activity (Rattus norvegicus [11]): 79.51%
- Activity (Rattus norvegicus [12]): 83.5%

Structure (SMILES): N#CC(C#N)/N=N/c1ccc2c(c1)CCC2
- Activity (Rattus norvegicus [13]): 64.83%

Structure (SMILES): Nc1cc(-c2ccccc2)nn1-c1nc2c(cnn2-c2ccccc2)c(=O)n1-c1ccccc1
- inhibition in vivo at 10 mg/kg (Rattus norvegicus [14]): 50%

Structure (SMILES): C[C@]12CCC(=O)C=C1CC[C@@H]1[C@@H]2[C@@H](O)C[C@@]2(C)[C@H]1CC[C@]2(O)C(=O)CO [HYDROCORTISONE]
- IC50 (RAW264.7 [1]): 3.26 µM

Structure (SMILES): C[C@]12CC[C@H]3[C@@H](CC=C4C[C@@H](O)CC[C@@]43C)[C@@H]1CC[C@@H]2C1=NN(C(N)=S)C(c2cccc(F)c2)C1 (some centres undefined)
- IC50 (RAW264.7 [15]): 0.86 µM

Structure (SMILES): O=C(O)Cc1ccccc1Nc1c(Cl)cccc1Cl
- Activity [16]: 84.1%

Structure (SMILES): Oc1ccc(Cl)cc1-c1cc(-c2cc3cc4ccccc4nc3s2)[nH]n1
- EC50 (Erythrocyte): 14 µg/mL (≈ 37.1 µM)

Structure (SMILES): C[C@@H]1C[C@H]2[C@@H]3CCC4=CC(=O)C=C[C@]4(C)[C@@]3(F)[C@@H](O)C[C@]2(C)[C@@]1(O)C(=O)CO [DEXAMETHASONE]
- IC50 (RAW264.7 [15]): 0.62 µM

Structure (SMILES): CC(=O)Nc1ccc(OC(=O)CCCC(=O)/C=C/c2cn(-c3ccccc3)nc2-c2ccccc2)cc1
- Activity (Rattus norvegicus [4]): 20%
- Activity (Rattus norvegicus [5]): 15.56%
- Activity (Rattus norvegicus [6]): 28.57%

Structure (SMILES): O=C1NC(=O)C(=NNc2cccc(-c3nc4ccccc4[nH]3)c2)C(=O)N1
- IC50 [17]: 2.76 µM

Structure (SMILES): CCCC1Nc2cc(C(=O)N/N=C/c3ccc(Cl)cc3Cl)cc(C)c2N1 (centres undefined)
- Activity (Rattus norvegicus [9]): 45.5%
- Activity (Rattus norvegicus [10]): 59.38%
- Activity (Rattus norvegicus [11]): 81.4%
- Activity (Rattus norvegicus [12]): 90.3%

Structure (SMILES): CC(=O)Oc1ccccc1C(=O)O
- inhibition [2]: 11.1%

Structure (SMILES): N#CC(/N=N/c1ccc2c(c1)CCC2)=C(\N)N1CCCCC1
- Activity (Rattus norvegicus [13]): 63.95%

Structure (SMILES): O=C(O)C(F)(F)C(O)c1cn(-c2ccccc2)nc1-c1ccc(Cl)cc1Cl (centres undefined)
- inhibition [2]: 38.6%
- Activity [3]: 76%

Structure (SMILES): O=C1O[C@H]([C@@H](O)CO)C(O)=C1O
- Activity [3]: 81.3%

Structure (SMILES): O=C1CSC(=S)C1NC1=NC2C(C=NN2c2ccccc2)C(=O)N1c1ccccc1 (centres undefined)
- inhibition (INH) (Mus musculus [18]): 45.6%
- inhibition in vivo at 5 mg/kg (Rattus norvegicus [19]): 85.7%

Structure (SMILES): O=C(O)c1ccc(CSc2nc3cc(F)c(Oc4ccc(F)cc4)cc3[nH]2)cc1
- IC50 [20]: 0.9 µM
- Activity (Mus musculus [21]): 66.13%

Structure (SMILES): Cc1cc(-c2ccccc2)n(-c2nc3c(cnn3-c3ccccc3)c(=O)n2-c2ccccc2)n1
- Selectivity Index [7]: 5.44

Structure (SMILES): CC(C)Cc1ccc(C(C)C(=O)O)cc1 (centres undefined) [IBUPROFEN]
- UI (Rattus norvegicus [22]): 20.25
- UI (Rattus norvegicus [23]): 20.25
- Activity (Mus musculus [21]): 70.65%

Structure (SMILES): N=C1/C(=N\Nc2ccc(Cl)cc2)C(N)=NN1c1ccc(S(N)(=O)=O)cc1
- IC50 [20]: 2.31 µM

Structure (SMILES): NS(=O)(=O)c1ccc(-n2nc(C(=O)NNC(=O)c3cccc(Cl)c3)cc2-c2ccccc2)cc1
- Activity (Rattus norvegicus [8]): >60%
